Test results published in US8575156B2, “Cyclic inhibitors of 11β-hydroxysteroid dehydrogenase 1” (Vitae Pharmaceuticals, Inc., priority 2007, dated 2013).
Where two headings read alike, the source gives them in different places.

Target: 11β-HSD1 (Homo sapiens, UniProt P28845)
Test: biochemical
Conditions: for IC50: IC50 Range, Biological Test Example 1, microsomes from CHO cells overexpressing human 11β-HSD1; for inhibition at 0.1 µM: read-out: Average % inhibition at 100 nM, Biological Test Example 1, 100 nM compound
[1] = read-out: Average % inhibition at 111.1 nM, Biological Test Example 1, 111.1 nM compound

11β-HSD1, sequence (P28845 whole entry): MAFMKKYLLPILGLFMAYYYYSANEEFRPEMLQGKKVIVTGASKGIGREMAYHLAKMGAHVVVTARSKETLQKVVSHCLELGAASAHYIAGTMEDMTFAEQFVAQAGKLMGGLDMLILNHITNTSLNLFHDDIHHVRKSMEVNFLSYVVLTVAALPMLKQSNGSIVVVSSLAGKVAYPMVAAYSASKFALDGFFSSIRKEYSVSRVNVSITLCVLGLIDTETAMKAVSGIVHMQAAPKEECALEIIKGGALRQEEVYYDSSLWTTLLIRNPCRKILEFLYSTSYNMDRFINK

Structure (SMILES)	IC50 [nM]	inhibition at 0.1111 µM [1] [%]	inhibition at 0.1 µM [%]	inhibition at 0.1111 µM (read-out: Average % inhibition at 111.1 nM) [%]
O=C1OC(CCO)(c2ccccc2)CCN1c1cccc(Br)c1 (centres unmarked) [EXAMPLE 74, 3-(3-bromophenyl)-6-(2-hydroxyethyl)-6-phenyl-1,3-oxazinan-2-one]	< 100	70	–	–
NC(=O)CC1(c2ccccc2)CCN(c2cccc(-c3ccc(F)cc3F)c2)C(=O)O1 (centres unmarked) [EXAMPLE 76, 2-(3-(2′,4′-difluorobiphenyl-3-yl)-2-oxo-6-phenyl-1,3-oxazinan-6-yl)acetamide]	< 100	–	81	–
CC1(c2ccccn2)CCN(c2cccc(-c3ccc(F)cc3F)c2)C(=O)O1 (centres unmarked) [EXAMPLE 80, 3-(2′,4′-difluorobiphenyl-3-yl)-6-methyl-6-(pyridin-2-yl)-1,3-oxazinan-2-one]	< 100	–	–	77.8
CC1(c2ccccc2)CCN(c2cccc(Oc3ccccc3)c2)C(=O)O1 (centres unmarked) [EXAMPLE 81, 6-methyl-3-(3-phenoxyphenyl)-6-phenyl-1,3-oxazinan-2-one]	< 100	72.2	–	–
COc1ccc([C@H](C)N2CCC(C)(c3ccccc3)OC2=O)cc1 (stereo partly drawn) [EXAMPLE 85, 3-((S)-1-(4-methoxyphenyl)ethyl)-6-methyl-6-phenyl-1,3-oxazinan-2-one]	< 100	102	–	–
C[C@@H](c1cccc(O)c1)N1CCC(C)(c2ccccc2)OC1=O (stereo partly drawn) [EXAMPLE 89, 3-((S)-1-(3-hydroxyphenyl)ethyl)-6-methyl-6-phenyl-1,3-oxazinan-2-one]	< 100	71.4	–	–
C[C@@H](c1ccccc1)N1CCC(C)(c2ccc(CN3CCOCC3)cc2)OC1=O (stereo partly drawn) [EXAMPLE 92, 6-methyl-6-(4-(morpholinomethyl)phenyl)-3-((S)-1-phenylethyl)-1,3-oxazinan-2-one]	100 to 1000	35	–	–

Further lines, with some results ahead:

IC50 [nM]	inhibition at 0.1111 µM [1] [%]	inhibition at 0.1 µM [%]	Structure (SMILES)	inhibition at 0.1111 µM (read-out: Average % inhibition at 111.1 nM) [%]
< 100	57.8	–	NCCC1(c2ccccc2)CCN(c2cccc(-c3ccc(F)cc3F)c2)C(=O)O1 (centres unmarked) [EXAMPLE 75, 6-(2-aminoethyl)-3-(2′,4′-difluorobiphenyl-3-yl)-6-phenyl-1,3-oxazinan-2-one]	–
< 100	89.2	88.7	O=C1OC(CC(O)CO)(c2ccccc2)CCN1c1cccc(-c2ccc(F)cc2F)c1 (centres unmarked) [EXAMPLE 77, 3-(2′,4′-difluorobiphenyl-3-yl)-6-(2,3-dihydroxypropyl)-6-phenyl-1,3-oxazinan-2-one]	–
< 100	75.3	–	CC1(c2cccc(Cl)c2)CCN(c2cccc(-c3ccccc3)c2)C(=O)O1 (centres unmarked) [EXAMPLE 79, 3-(biphenyl-3-yl)-6-(3-chlorophenyl)-6-methyl-1,3-oxazinan-2-one]	–
< 100	94.6	–	COc1cccc([C@H](C)N2CCC(C)(c3ccccc3)OC2=O)c1 (stereo partly drawn) [EXAMPLE 84, 3-((S)-1-(3-methoxyphenyl)ethyl)-6-methyl-6-phenyl-1,3-oxazinan-2-one]	–
< 100	85.7	–	Cc1ccccc1C1(C)CCN([C@@H](C)c2ccccc2)C(=O)O1 (stereo partly drawn) [EXAMPLE 86, 6-methyl-3-((S)-1-phenylethyl)-6-o-tolyl-1,3-oxazinan-2-one]	–
< 100	–	–	Cc1cccc(C2(C)CCN([C@@H](C)c3ccccc3)C(=O)O2)c1 (stereo partly drawn) [EXAMPLE 87, 6-methyl-3-((S)-1-phenylethyl)-6-m-tolyl-1,3-oxazinan-2-one]	–
< 100	97.1	–	Cc1ccc(C2(C)CCN([C@@H](C)c3ccccc3)C(=O)O2)cc1 (stereo partly drawn) [EXAMPLE 88, 6-methyl-3-((S)-1-phenylethyl)-6-p-tolyl-1,3-oxazinan-2-one]	–
< 100	83.1	–	CSc1ccc(C2(C)CCN([C@@H](C)c3ccccc3)C(=O)O2)cc1 (stereo partly drawn) [EXAMPLE 90, 6-methyl-6-(4-(methylthio)phenyl)-3-((S)-1-phenylethyl)-1,3-oxazinan-2-one]	–
100 to 1000	39.8	–	CCOC(=O)COc1cccc([C@H](C)N2CCC(C)(c3ccccc3)OC2=O)c1 (stereo partly drawn) [EXAMPLE 91, ethyl 2-(3-((1S)-1-(6-methyl-2-oxo-6-phenyl-1,3-oxazinan-3-yl)ethyl)phenoxy)acetate]	–
